In patent US9551718B2, “TMEM120A ion channel modulator” (priority 2014, dated 2017):

Legend:
TMEM120A [1] = assay: shRNA knockdown of TMEM120A in kidney epithelial cells (mIMCD), mechanosensitivity; assay type: cell-based, mouse; details: lentiviral particles
Method: Knockdown was performed by infecting the cells in culture with lentiviral particles expressing an shRNA against TMEM120A and a puromycin resistance gene. This mean of selection enabled to identify cells that had taken up the shRNA. A quantitative polymerase chain reaction was then performed to verify that mRNA levels for TMEM120A were down. The shRNA sequence is […] TTTG (SEQ ID NO: 4).

MIA injected mice = assay: Knee flexion-extension pain score after intra-articular injection in MIA mice; assay type: in vivo, mouse; details: for analgesia, knee flexion-extension pain score: intra-articular
Method: (§1) Osteoarthritis is induced by injection of MIA (25 μg dissolved in 5 μl physiological saline) in the mouse knee joint. Control mice receive saline injection. The previously-described knee-bend test^28 is used to assess mechanical allodynia at the primary site of OA pain, as this test provides information regarding pain induced by movement of the affected joint^28 (FIG. 2a). Briefly, each test consists of 5 flexions and 5 extensions of the knee joint, and the total number of vocalization/struggle is recorded. The knee mechanical withdrawal threshold is determined with the Pressure Application Measurement (PAM) device, as previously described^132. Briefly, mice are gently restrained and a force transducer wrapped around the experimenter's thumb is pressed against the knee joint. […] Once the mouse withdraws its knee, the sensor identifies the maximum force applied before the withdrawal.
The GsMTx4 peptide sequence is […] (SEQ ID NO: 5). […] Moreover, it confirms that intra-articular injections can reach the nerve terminals of knee-innervating nociceptors. […] This indicates the analgesia is not due to the peptide leaking out of the joint to have a systemic effect. N=6-10 for GsMTx4 injections, N=9 for all groups in lidocaine trial.

[2] = system: MSC activity in knee-innervating nociceptors; assay: Outside-out patch recording of mechanically-evoked MSC current in knee-innervating nociceptors; assay type: cell-based, mouse
Method: Isolated mouse sensory neurons are obtained by enzymatic digestion of the dorsal root ganglia L3-L4 followed by mechanical dispersion. Joint-innervating neurons are identified by the presence of Fluorogold (FG), a retrograde tracer injected in the knee joint 72 hours prior to dissection. […] Transgenic mice that express the fluorescent protein TdTomato in nociceptors are generated by crossing Crerecombinase-dependent TdTomato reporter mice to Trpv1-Cre mice (FIG. 4). In this approach, recording can be made specifically from articular nociceptors (FG- and TdTomato-positive neurons).
Experiments are done for example 1 hour after plating the isolated neurons in petri dishes, or after 3 days in culture (for example for conducting siRNA experiments). Whole-cell^137,138 and cell-attached^100,102 recordings are obtained using glass pipettes mounted to amplifier headstages driven by motorized micromanipulators. Signals are amplified using multi-clamp 700B amplifiers. All experimental protocols, data acquisition and analysis are performed using the Clampex® and Clampfit™ software.
MSCs are activated using different approaches. In whole-cell recordings, a computer driven stimulating probe is brought near the cell membrane, then brief steps of 0.5 μm amplitude are made toward the cell at a 45 degree angle using a motorized 3-axis micromanipulator. In cell-attached recordings, brief pulses of negative pressure are applied through the recording electrode to increase membrane tension and evoke MSC opening. These pressure pulses are generated by a high-speed pressure clamp device previously validated^100,102.
An outside-out patch is formed and the minimal positive pressure (+P) is applied to open MSCs. 5 μM GsMTx4 is superfused and the protocol is run again. GsMTx4 is then washed and the same patch undergoes one final protocol run. […] Likewise, wash causes the recovery of the reduction (Kruskal-Wallis with Dunn's multiple comparisons, n=161, 85, 100 for control, GsMTx4 and wash, respectively.

OA mice [3] = assay: Von Frey test of secondary mechanical allodynia after hindpaw injection; assay type: in vivo, mouse
Method: Von Frey filaments are used to assess the secondary mechanical allodynia in the hindpaw (FIG. 2a). Mechanical withdrawal threshold is assessed by touching the plantar surface of the hindpaw with von Frey filaments using the up-down method as previously described^133. Positive withdrawals are counted as biting, licking and/or withdrawal of the paw during the 3 sec stimulus. In the knee-bend and PAM tests, MSC blockers are injected in the knee joint. In the von Frey test, they are injected in the intraplantar region.
To determine whether MSCs in nerve terminals at the primary site of the pathology (knee) contribute to mechanical allodynia in OA, the MSC blockers, GsMTx4 or gadolinium are injected in the knee joint of OA mice. Behavioral experiments include the knee-bend test^28 and the knee mechanical withdrawal test. To determine if MSCs contribute to secondary mechanical allodynia, GsMTx4 or gadolinium is injected in the ipsilateral hindpaw and assess secondary allodynia using the von Frey test. To determine whether these channels contribute to mechanosensitivity in the absence of allodynia, the blockers are injected in the knee joint or hindpaw of control mice.

OA mice [4] = assay: Behavioral pain score in the OA mouse model after injection of an MSC blocker; assay type: in vivo; details: injection around 28 days following MIA
Method: as §1
In an in vivo mouse OA model as described in Example 1, the OA mice further received around 28 days following injection of MIA an injection of a vehicle or either a toxin (GsMTx4 or gadolinium) blocking the MSCs.

TMEM120A [5] = target: T1, TMEM120A (Homo sapiens, UniProt Q9BXJ8); assay: Cobalt precipitate accumulation in CHO cells stably expressing TMEM120A exposed to hypotonic media; assay type: cell-based; details: cells pretreated with blocker
T1 construct: expressed in transfected cells
T1 sequence (Q9BXJ8 1-343): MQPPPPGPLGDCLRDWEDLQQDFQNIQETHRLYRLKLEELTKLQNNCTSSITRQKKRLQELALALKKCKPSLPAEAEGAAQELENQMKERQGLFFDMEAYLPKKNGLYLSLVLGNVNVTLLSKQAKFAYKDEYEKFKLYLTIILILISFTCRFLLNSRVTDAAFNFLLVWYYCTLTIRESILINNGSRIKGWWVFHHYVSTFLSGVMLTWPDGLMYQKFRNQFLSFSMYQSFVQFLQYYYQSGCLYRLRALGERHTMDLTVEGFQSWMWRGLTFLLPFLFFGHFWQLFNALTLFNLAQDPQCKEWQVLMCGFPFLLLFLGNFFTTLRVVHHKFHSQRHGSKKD
From the text: In an embodiment, the assay comprises exposing CHO cells stably expressing TMEM120A (or controls) to hypotonic media. The membrane stretch caused by the swelling opens the channels, enabling the influx of calcium ions and other molecules such as cobalt if present in the media. Quantitating the ion channel activity after the cobalt enters the cells can comprise treating the cells with ammonium sulphide (1.2% Sigma # A1952), then fixing them with paraformaldehyde, then amplified through the silver enhancement method and measuring the amount of cobalt precipitate compared to a control.
CHO cells stably expressing TMEM120A (or controls) were exposed to hypotonic media. The membrane stretch caused by the swelling opens the channels, enabling the influx of calcium ions. In one alternative, calcium ions are substituted for cobalt After cobalt enters the cells, it is precipitated with ammonium sulfide, then the cells are fixed for example with paraformaldehyde, the precipitate is amplified through the silver enhancement method (by following steps provided by the commercial supplier, Sigma).

[6] = system: mechanically-activated slowly-adapting (SA) current; details: sensory neurons; cited from earlier work
[7] = system: cationic stretch-activated ion channels; details: from the extracellular side; cited from earlier work

In the case of “CCGGTTCCTGCTGGTCTGGTATTATCTCGAGATAATACCAGACCAGCAGGAATT TTTG (CCGGTTCCTGCTGGTCTGGTATTATCTCGAGATAATACCAGACCAGCAGGAATTTTTG; expressed or natural sequence) [shRNA against TMEM120A, short hairpin RNA against TMEM120A expressed from lentiviral particles]”, the mechanosensitivity (TMEM120A [1]) is reported as “reduces mechanosensitivity”.

In the case of `CCN(CC)CC(=O)Nc1c(C)cccc1C` [lidocaine], the percentage of analgesia (MIA injected mice; 5% in DMSO, intra-articular injection, vs vehicle) is reported as “significantly larger percentage of analgesia compared to vehicle”.

With “GCLEFWWKCNPNDDKCCRPKLKCSKLFKLCNFSF (listed as Grammostola spatulata) [GsMTx4]” the “mean open time of the channel” value ([2]; 5 μM superfused, outside-out patch) was “mean open time is also significantly reduced”, the “mechanically-evoked current (normalized to control trace)” value ([2]; 5 μM superfused, outside-out patch, minimal positive pressure) was “significantly reduces the mechanically-evoked current” and the “reversibility of current reduction on wash” value ([2]; after wash of 5 μM GsMTx4) was “this reduction is recovered following wash”. The “analgesia, knee flexion-extension pain score” value (MIA injected mice; 5 μM) was “unable to produce analgesia”, the “analgesia, knee flexion-extension on the ipsilateral knee” value (MIA injected mice; 50 μM injected in the contralateral knee) was “does not provide analgesia” and the “analgesia, knee flexion-extension pain score” value (MIA injected mice; 50 μM, ipsilateral knee, vs saline) was “significant analgesia compared to vehicle”. For the same compound, the secondary allodynia (OA mice [3]; intraplantar injection 15 days after OA induction) was “significant and reversible attenuation of the secondary allodynia”, the “mechanical sensitivity (withdrawal threshold)” value (OA mice [3]; intraplantar injection, naïve mice) was “does not affect mechanical sensitivity” and the “duration of effect on mechanical hypersensitivity” value (OA mice [3]; ipsilateral hindpaw injection, MIA mice) was ≤ 24 h. For the same compound, the “pain level as measured by a behavioral score” value (OA mice [4]) was “significantly decreases the pain level”, the “accumulation of cobalt precipitate on hypotonic stimuli” value (TMEM120A [5]) was “accumulation can be prevented” and the “block of SA current” value [6] was “blocked”. The “block of cationic stretch-activated ion channels” value [7] was “block cationic stretch-activated ion channels”.

For `[Gd]` [gadolinium], the “pain level as measured by a behavioral score” value (OA mice [4]) is given as “significantly decreases the pain level”, the “accumulation of cobalt precipitate on hypotonic stimuli” value (TMEM120A [5]) is given as “accumulation can be prevented” and the “block of SA current” value [6] is given as “blocked”.

In the case of `N.N.N.N.N.N.N.N.N.N.N.N.N.N.[Cl-].[Cl-].[Cl-].[Cl-].[Cl-].[Cl-].[O-2].[O-2].[Ru+3].[Ru+3].[Ru+4]` [ruthenium red], the “block of SA current” value [6] is given as “blocked”.
